Here are results for 15 compounds from US12630530B2, “FGFR inhibitor compound and use thereof” (HENAN MEDINNO PHARMACEUTICAL TECHNOLOGY CO., LTD., priority 2020, dated 2026).

Bounds are passed on as bounds.

Holding throughout (type): biochemical
Experiment [1] concerns the target T1, FGFR3 V555M (Homo sapiens, UniProt P22607, V555M).
T1 construct: purchased Signalchem F06-12GG
In words: Assay I: inhibitory activity against FGFR mutants (HTRF KinEASE-TK). Particulars: Table 1; ATP working concentration 20 μM, substrate TK 1 μM. How it is done: (§1) Assay I: Determination of Inhibitory Activity Against FGFR Mutants
(§2) 1×Kinase reaction buffer was formulated with 1×volume of 5× kinase reaction buffer and 4×volume of water; 5 mM MgCl2; and 1 mM DTT.
(§3) 2.3 Screening of Compounds: • 1. Diluting a compound 4-fold in a dilution plate with DMSO, with a starting compound concentration of 2 mM (4 mM for Nentedanib). • 2. Diluting the compound 40-fold into 1× kinase reaction buffer and shaking it on a shaker for 20 minutes. • 3. […] Adding 1 μl of the compound diluted in buffer to each well, sealing the plate with a sealing membrane and centrifuging the plate at 1000 g for 30 seconds and leaving it at room temperature for 10 minutes. • 6. Formulating 2.5×TK-substrate-biotin and ATP mixture with 1× enzyme reaction buffer and adding 2 μl of K-substrate-biotin/ATP mixture to the reaction plate. • 7. Sealing the plate with a sealing membrane and centrifuging the plate at 1000 g for 30 seconds and allowing it to react at room temperature for 50 minutes. • 8. Formulating 4×Sa-XL 665 (250 nM) with HTRF assay buffer. • 9. Adding 5 μl Sa-XL 665 and 5 μl TK-Antibody-Cryptate to each well, centrifuging it at 1000 g for 30 seconds, and allowing it to react for 1 hour at room temperature. • 10. Reading fluorescence signals at 615 nm (Cryptate) and 665 nm (XL665) with Biotek. 3. Data Analysis
(§4) 3.1 Calculation of the ratio for each well: the ratio was calculated as 665/615 nm.
(§5) 3.3 Calculation of IC50 and plotting of inhibition curves for the compounds.
(§6) The IC50 (half inhibition concentration) of a compound was obtained using the following non-linear fitting equation, wherein data analysis was performed using Graphpad 6.0 software.
(§7) Data were exported from Envision and analyzed manually. The ratios were converted to inhibition rates and IC50 was calculated by Prism GraphPad 6.0 from the inhibition rates. IC50 was calculated again by the ratios to verify accuracy of the results.

Experiment [2] concerns the target T2, FGFR1 V561M (Homo sapiens, UniProt P11362, V561M).
T2 construct: purchased Signalchem F04-13G
The description is as above. The settings on record: Table 1; ATP working concentration 5 μM, substrate TK 1 μM. How it is done:
as §1, §2
(§8) 2.3 Screening of Compounds: • 1. […] Adding 1 μl of the compound diluted in buffer to each well, sealing the plate with a sealing membrane and centrifuging the plate at 1000 g for 30 seconds and leaving it at room temperature for 10 minutes. • 6. Formulating 2.5×TK-substrate-biotin and ATP mixture with 1× enzyme reaction buffer and adding 2 μl of K-substrate-biotin/ATP mixture to the reaction plate. • 7. Sealing the plate with a sealing membrane and centrifuging the plate at 1000 g for 30 seconds and allowing it to react at room temperature for 50 minutes. • 8. […] 3. Data Analysis
as §5, §6, §7

The target in experiment [3] is T3, FGFR2 V564F (Homo sapiens, UniProt P21802, V564F).
T3 construct: purchased Signalchem F05-12FG
T3 sequence (P21802 22-821 V564F): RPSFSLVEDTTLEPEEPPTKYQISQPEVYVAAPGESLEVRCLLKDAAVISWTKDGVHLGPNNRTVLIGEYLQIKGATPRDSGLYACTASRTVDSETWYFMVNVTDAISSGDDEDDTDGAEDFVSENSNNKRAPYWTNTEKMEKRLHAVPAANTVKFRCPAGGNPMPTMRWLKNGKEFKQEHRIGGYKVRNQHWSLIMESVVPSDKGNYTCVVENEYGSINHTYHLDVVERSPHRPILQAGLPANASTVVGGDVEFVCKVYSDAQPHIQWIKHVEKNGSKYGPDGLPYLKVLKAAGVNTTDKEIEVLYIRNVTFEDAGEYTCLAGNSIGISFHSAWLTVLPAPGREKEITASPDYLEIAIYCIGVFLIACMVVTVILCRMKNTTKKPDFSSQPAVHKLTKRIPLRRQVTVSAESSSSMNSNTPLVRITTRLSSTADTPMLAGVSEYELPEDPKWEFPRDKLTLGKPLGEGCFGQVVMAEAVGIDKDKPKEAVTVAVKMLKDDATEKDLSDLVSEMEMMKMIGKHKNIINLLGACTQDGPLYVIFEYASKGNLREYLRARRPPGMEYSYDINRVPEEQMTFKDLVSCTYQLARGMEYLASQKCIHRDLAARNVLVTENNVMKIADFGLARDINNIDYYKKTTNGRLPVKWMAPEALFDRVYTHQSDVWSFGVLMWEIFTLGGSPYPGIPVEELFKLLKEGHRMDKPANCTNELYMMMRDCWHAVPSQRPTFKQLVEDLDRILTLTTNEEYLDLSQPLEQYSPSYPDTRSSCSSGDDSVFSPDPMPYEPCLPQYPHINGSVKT
The description is as above. Particulars: Table 1; ATP working concentration 10 μM, substrate TK 1 μM. How it is done: as §1, §2, §8, §5, §6, §7

The target in experiment [4] is T4, VEGFR2 (Homo sapiens, UniProt P35968).
T4 construct: purchased Carna 08-191
T4 sequence (P35968 20-1356): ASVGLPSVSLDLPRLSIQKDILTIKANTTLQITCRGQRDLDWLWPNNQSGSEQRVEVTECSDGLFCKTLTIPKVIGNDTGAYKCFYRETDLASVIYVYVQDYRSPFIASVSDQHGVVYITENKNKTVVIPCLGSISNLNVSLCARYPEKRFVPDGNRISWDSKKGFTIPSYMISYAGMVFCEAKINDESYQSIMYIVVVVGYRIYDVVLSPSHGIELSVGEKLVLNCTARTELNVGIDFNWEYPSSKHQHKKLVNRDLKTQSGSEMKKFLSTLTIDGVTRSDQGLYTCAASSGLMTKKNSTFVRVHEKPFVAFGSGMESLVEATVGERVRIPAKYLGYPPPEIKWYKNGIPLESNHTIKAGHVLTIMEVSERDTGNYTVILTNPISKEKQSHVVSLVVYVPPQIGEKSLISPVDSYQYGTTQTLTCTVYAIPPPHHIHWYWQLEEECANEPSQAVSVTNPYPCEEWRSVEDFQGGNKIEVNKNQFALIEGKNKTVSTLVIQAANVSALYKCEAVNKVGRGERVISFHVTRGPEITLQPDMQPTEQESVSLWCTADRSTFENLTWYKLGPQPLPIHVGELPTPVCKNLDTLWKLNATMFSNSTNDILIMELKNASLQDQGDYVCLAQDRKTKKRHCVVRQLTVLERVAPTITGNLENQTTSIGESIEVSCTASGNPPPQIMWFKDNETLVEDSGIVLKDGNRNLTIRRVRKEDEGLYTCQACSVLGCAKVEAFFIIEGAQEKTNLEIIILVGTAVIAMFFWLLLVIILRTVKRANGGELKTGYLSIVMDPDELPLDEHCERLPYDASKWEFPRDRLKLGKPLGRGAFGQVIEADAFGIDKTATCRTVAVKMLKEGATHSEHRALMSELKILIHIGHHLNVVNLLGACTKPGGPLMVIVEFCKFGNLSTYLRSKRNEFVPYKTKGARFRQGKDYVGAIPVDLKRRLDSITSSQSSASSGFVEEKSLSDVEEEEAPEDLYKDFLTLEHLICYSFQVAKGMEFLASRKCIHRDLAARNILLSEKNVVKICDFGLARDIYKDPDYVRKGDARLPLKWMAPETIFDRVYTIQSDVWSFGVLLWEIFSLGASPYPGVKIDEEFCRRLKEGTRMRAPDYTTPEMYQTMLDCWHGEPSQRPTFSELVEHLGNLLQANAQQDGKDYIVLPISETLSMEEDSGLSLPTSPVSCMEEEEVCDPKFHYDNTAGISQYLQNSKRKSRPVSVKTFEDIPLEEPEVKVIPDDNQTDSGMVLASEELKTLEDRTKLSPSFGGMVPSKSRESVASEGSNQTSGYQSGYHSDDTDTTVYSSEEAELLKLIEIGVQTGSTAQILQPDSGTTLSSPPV
Kind of experiment: Assay I: kinase inhibition (HTRF KinEASE-TK), VEGFR2. The settings on record: Table 1; ATP working concentration 5 μM, substrate TK 1 μM.

Experiment [5] addresses T2, FGFR1 V561M. In words: Assay III: inhibitory activity against FGFR mutants (method of Assay I, different operator). The settings on record: Table 3; same method as Assay I, different experimental operator. How it is done: as §2, §3, §4, §5, §6, §7
(§9) Assay III: Determination of Inhibitory Activity Against FGFR Mutants

Experiment [6] concerns the target T1, FGFR3 V555M. The experiment is described as above. Particulars: Table 3; same method as Assay I, different experimental operator. How it is done: as §2, §3, §4, §5, §6, §7, §9
Experiment [7] deals with T3, FGFR2 V564F. The experiment is described as above. The settings on record: Table 3; same method as Assay I, different experimental operator. How it is done: as §2, §3, §4, §5, §6, §7, §9
Experiment [8] deals with T4, VEGFR2. Kind of experiment: Assay III: kinase inhibition (method of Assay I, different operator), VEGFR2. The settings on record: Table 3; same method as Assay I, different experimental operator. How it is done:
as §2
2.3 Screening of Compounds: • 1. Diluting a compound 4-fold in a dilution plate with DMSO, with a starting compound concentration of 2 mM (4 mM for Nentedanib). • 2. Diluting the compound 40-fold into 1× kinase reaction buffer and shaking it on a shaker for 20 minutes. • 3. Formulating 2×FGFR1 V561M/FGFR2 V564F/FGFR3 K650E/VEGFR2 with 1× of enzyme reaction buffer. • 4. Adding 2 μl FGFR1 V561M/FGFR2 V564F/FGFR3 K650E/VEGFR2 kinase (formulated in step 3) to each well of the reaction plate. • 5. Adding 1 μl of the compound diluted in buffer to each well, sealing the plate with a sealing membrane and centrifuging the plate at 1000 g for 30 seconds and leaving it at room temperature for 10 minutes. • 6. Formulating 2.5×TK-substrate-biotin and ATP mixture with 1× enzyme reaction buffer and adding 2 μl of K-substrate-biotin/ATP mixture to the reaction plate. • 7. Sealing the plate with a sealing membrane and centrifuging the plate at 1000 g for 30 seconds and allowing it to react at room temperature for 50 minutes. • 8. Formulating 4×Sa-XL 665 (250 nM) with HTRF assay buffer. • 9. Adding 5 μl Sa-XL 665 and 5 μl TK-Antibody-Cryptate to each well, centrifuging it at 1000 g for 30 seconds, and allowing it to react for 1 hour at room temperature. • 10. Reading fluorescence signals at 615 nm (Cryptate) and 665 nm (XL665) with Biotek. 3. Data Analysis
as §4, §5
The IC50 (half inhibition concentration) of a compound was obtained using the following non-linear fitting equation, wherein data analysis was performed using Graphpad 6.0 software. Y=Bottom+(Top−Bottom)/(1+10^((Log IC50−X)*Hill Slope)) • X: log value of compound concentration; and Y: inhibition rate (% inh) 3.4 Validation of Results
as §7, §9

T2 sequence (P11362 22-822 V561M): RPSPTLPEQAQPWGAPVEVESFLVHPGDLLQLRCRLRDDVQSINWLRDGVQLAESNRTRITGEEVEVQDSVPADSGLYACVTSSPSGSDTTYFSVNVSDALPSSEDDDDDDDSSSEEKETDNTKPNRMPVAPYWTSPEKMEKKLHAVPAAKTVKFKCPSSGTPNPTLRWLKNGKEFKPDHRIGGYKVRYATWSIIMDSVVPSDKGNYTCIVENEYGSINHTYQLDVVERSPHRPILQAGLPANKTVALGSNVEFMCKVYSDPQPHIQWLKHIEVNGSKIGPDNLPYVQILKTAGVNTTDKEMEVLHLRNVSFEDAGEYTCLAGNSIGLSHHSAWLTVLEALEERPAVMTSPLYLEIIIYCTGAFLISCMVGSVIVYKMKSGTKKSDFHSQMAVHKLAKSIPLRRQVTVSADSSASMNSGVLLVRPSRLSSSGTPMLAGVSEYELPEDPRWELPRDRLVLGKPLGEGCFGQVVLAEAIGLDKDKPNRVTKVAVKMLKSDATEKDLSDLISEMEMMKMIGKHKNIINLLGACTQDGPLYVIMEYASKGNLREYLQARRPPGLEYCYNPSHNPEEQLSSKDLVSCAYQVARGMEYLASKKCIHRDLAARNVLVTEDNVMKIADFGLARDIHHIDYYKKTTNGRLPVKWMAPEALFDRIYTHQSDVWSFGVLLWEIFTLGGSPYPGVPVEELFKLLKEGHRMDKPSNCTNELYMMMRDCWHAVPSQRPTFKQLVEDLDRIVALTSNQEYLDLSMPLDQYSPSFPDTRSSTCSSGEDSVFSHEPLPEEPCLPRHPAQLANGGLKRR
T1 sequence (P22607 23-806 V555M): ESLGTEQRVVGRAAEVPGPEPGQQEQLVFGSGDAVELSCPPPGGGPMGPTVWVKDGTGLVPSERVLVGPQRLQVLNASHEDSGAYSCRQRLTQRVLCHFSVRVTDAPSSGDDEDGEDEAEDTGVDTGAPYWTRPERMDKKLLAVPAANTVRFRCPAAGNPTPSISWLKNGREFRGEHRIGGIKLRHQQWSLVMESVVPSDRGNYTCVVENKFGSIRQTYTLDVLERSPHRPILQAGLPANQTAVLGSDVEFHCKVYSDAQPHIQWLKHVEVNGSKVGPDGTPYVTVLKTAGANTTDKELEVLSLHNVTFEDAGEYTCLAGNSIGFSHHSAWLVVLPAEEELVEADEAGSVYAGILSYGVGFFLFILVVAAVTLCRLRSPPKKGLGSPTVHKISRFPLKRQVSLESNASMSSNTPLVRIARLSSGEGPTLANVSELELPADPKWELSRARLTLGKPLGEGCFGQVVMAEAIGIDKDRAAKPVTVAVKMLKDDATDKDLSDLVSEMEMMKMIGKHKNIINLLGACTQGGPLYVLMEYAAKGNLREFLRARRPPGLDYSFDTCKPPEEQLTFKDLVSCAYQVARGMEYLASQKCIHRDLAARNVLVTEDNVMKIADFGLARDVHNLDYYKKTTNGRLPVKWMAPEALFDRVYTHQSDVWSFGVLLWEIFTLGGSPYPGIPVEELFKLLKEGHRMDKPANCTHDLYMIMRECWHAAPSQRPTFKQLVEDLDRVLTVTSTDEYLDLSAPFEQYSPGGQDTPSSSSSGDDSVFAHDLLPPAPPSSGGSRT

In the case of `CCn1cc(NC(=O)c2n[nH]c3ccc(OC(C)c4c(Cl)cncc4Cl)cc23)cn1` (stereo not shown) [Compound 20, 5-(1-(3,5-dichloropyridin-4-yl)ethoxy)-N-(1-ethyl-1H-pyrazol-4-yl)-1H-indazole-3-carboxamide], the IC50 at FGFR3 V555M [1] stood at 0.88 nM; against FGFR1 V561M [2], 9.1 nM; at FGFR2 V564F [3] it was 0.82 nM; against VEGFR2 [4], 327 nM.

Consider `CC(Oc1ccc2[nH]nc(C(=O)Nc3ccc(N4CC[C@@H](O)C4)cc3)c2c1)c1c(Cl)cncc1Cl` (stereo partly drawn) [Compound 3, 5-(1-(3,5-dichloropyridin-4-yl)ethoxy)-N-(4-((R)-3-hydroxypyrrolidin-1-yl)phenyl)-1H-indazole-3-carboxamide], for which the half-inhibitory concentration (IC50) was 69.7 nM on FGFR1 V561M [2], 22.1 nM at FGFR2 V564F [3] and greater than 10000 nM against VEGFR2 [4].

Turning to `CC(Oc1ccc2[nH]nc(C(=O)Nc3ccc(N4CCOCC4)nc3)c2c1)c1c(Cl)cncc1Cl` (stereo not shown) [Compound 4, 5-(1-(3,5-dichloropyridin-4-yl)ethoxy)-N-(6-morpholinopyridin-3-yl)-1H-indazole-3-carboxamide], the 50% inhibitory concentration (IC50) at FGFR1 V561M [2] was found to be 95.1 nM; at FGFR2 V564F [3], 9.5 nM; at VEGFR2 [4] it was 1590 nM.

Consider `CC(Oc1ccc2[nH]nc(C(=O)Nc3cnn(CC(=O)N(C)C)c3)c2c1)c1c(Cl)cncc1Cl` (stereo not shown) [Compound 24, 5-(1-(3,5-dichloropyridin-4-yl)ethoxy)-N-(1-(2-(dimethylamino)-2-oxoethyl)-1H-pyrazol-4-yl)-1H-indazole-3-carboxamide], for which the half-maximal inhibitory concentration (IC50) was 3.3 nM against FGFR1 V561M [5], 1.3 nM against FGFR3 V555M [6], 0.43 nM against FGFR2 V564F [7] and 201 nM against VEGFR2 [8].

On to `C[C@@H](Oc1ccc2[nH]nc(C(=O)Nc3cnn(CC4CCCN4C)c3)c2c1)c1c(Cl)cncc1Cl` (stereo partly shown) [Compound 42], for which the IC50 was 1.1 nM on FGFR1 V561M [5], 0.44 nM at FGFR3 V555M [6], 0.43 nM at FGFR2 V564F [7] and 169 nM against VEGFR2 [8].

For `C[C@@H](Oc1ccc2[nH]nc(C(=O)Nc3cnn(CCN(C)C)c3)c2c1)c1c(Cl)cncc1Cl` [Compound 36, (R)-5-(1-(3,5-dichloropyridin-4-yl)ethoxy)-N-(1-(2-(dimethylamino)ethyl)-1H-pyrazol-4-yl)-1H-indazole-3-carboxamide], the half-inhibitory concentration (IC50) at FGFR1 V561M [5] was 0.88 nM; against FGFR3 V555M [6], 0.11 nM; on FGFR2 V564F [7], 0.07 nM; on VEGFR2 [8], 41 nM.

For the compound `CCn1cc(NC(=O)c2n[nH]c3ccc(O[C@H](C)c4c(Cl)cncc4Cl)cc23)cn1` [Compound 34, (R)-5-(1-(3,5-dichloropyridin-4-yl)ethoxy)-N-(1-ethyl-1H-pyrazol-4-yl)-1H-indazole-3-carboxamide], the IC50 against FGFR1 V561M [5] was 0.24 nM; on FGFR3 V555M [6], 0.75 nM; against FGFR2 V564F [7], 0.06 nM; at VEGFR2 [8], 61 nM.

For `C[C@@H](O)Cn1cc(NC(=O)c2n[nH]c3ccc(O[C@H](C)c4c(Cl)cncc4Cl)cc23)cn1` [Compound 33, 5-((R)-1-(3,5-dichloropyridin-4-yl)ethoxy)-N-(1-((R)-2-hydroxypropyl)-1H-pyrazol-4-yl)-1H-indazole-3-carboxamide], the IC50 against FGFR1 V561M [5] was determined as 1 nM; on FGFR3 V555M [6], 0.39 nM; at FGFR2 V564F [7], 0.33 nM; on VEGFR2 [8], 99 nM.

Regarding `C[C@@H](Oc1ccc2[nH]nc(C(=O)Nc3cnn(CC4CCCN(C)C4)c3)c2c1)c1c(Cl)cncc1Cl` (stereo partly drawn) [Compound 44, 5-((R)-1-(3,5-dichloropyridin-4-yl)ethoxy)-N-(1-((1-methylpiperidin-3-yl)methyl)-1H-pyrazol-4-yl)-1H-indazole-3-carboxamide], the IC50 turned out to be 1.1 nM at FGFR1 V561M [5], 0.55 nM against FGFR3 V555M [6], 0.39 nM at FGFR2 V564F [7] and 145 nM on VEGFR2 [8].

Consider `CC(Oc1ccc2[nH]nc(C(=O)Nc3ccc(CN4CCOCC4)cc3)c2c1)c1c(Cl)cncc1Cl` (stereo not shown) [Compound 30, 5-(1-(3,5-dichloropyridin-4-yl)ethoxy)-N-(4-(morpholinomethyl)phenyl)-1H-indazole-3-carboxamide], for which the 50% inhibitory concentration (IC50) came to 36 nM against FGFR1 V561M [5], 7.6 nM against FGFR3 V555M [6], 3.7 nM on FGFR2 V564F [7] and 729 nM at VEGFR2 [8].

`C[C@@H](Oc1ccc2[nH]nc(C(=O)Nc3cnn(CC(C)(C)O)c3)c2c1)c1c(Cl)cncc1Cl` [Compound 38, (R)-5-(1-(3,5-dichloropyridin-4-yl)ethoxy)-N-(1-(2-hydroxy-2-methylpropyl)-1H-pyrazol-4-yl)-1H-indazole-3-carboxamide]: the IC50 is 3.7 nM on FGFR1 V561M [5], 0.59 nM against FGFR3 V555M [6], 0.4 nM against FGFR2 V564F [7] and 61 nM against VEGFR2 [8].

For `CCN1CC(n2cc(NC(=O)c3n[nH]c4ccc(O[C@H](C)c5c(Cl)cncc5Cl)cc34)cn2)C1` [Compound 31, (R)-5-(1-(3,5-dichloropyridin-4-yl)ethoxy)-N-(1-(1-ethyl-azetidin-3-yl)-1H-pyrazol-4-yl)-1H-indazole-3-carboxamide], the half-inhibitory concentration (IC50) was found to be 0.93 nM against FGFR1 V561M [5], 0.07 nM against FGFR3 V555M [6], 0.11 nM against FGFR2 V564F [7] and 54 nM against VEGFR2 [8].

As to `CCN1CC(Cn2cc(NC(=O)c3n[nH]c4ccc(O[C@H](C)c5c(Cl)cncc5Cl)cc34)cn2)C1` [Compound 39, (R)-5-(1-(3,5-dichloropyridin-4-yl)ethoxy)-N-(1-((1-ethyl-azetidin-3-yl)methyl)-1H-pyrazol-4-yl)-1H-indazole-3-carboxamide], the concentration for half-maximal inhibition (IC50) against FGFR1 V561M [5] worked out at 0.35 nM; on FGFR3 V555M [6], 0.05 nM; on FGFR2 V564F [7], 0.05 nM; on VEGFR2 [8] it was 30 nM.

Take `CCN1CCC(Cn2cc(NC(=O)c3n[nH]c4ccc(O[C@H](C)c5c(Cl)cncc5Cl)cc34)cn2)CC1` [Compound 40, (R)-5-(1-(3,5-dichloropyridin-4-yl)ethoxy)-N-(1-((1-ethylpiperidin-4-yl)methyl)-1H-pyrazol-4-yl)-1H-indazole-3-carboxamide]: the IC50 came to 0.42 nM at FGFR1 V561M [5], 0.02 nM at FGFR3 V555M [6], 1.3 nM on FGFR2 V564F [7] and 33 nM against VEGFR2 [8].

`CC(Oc1ccc2[nH]nc(C(=O)Nc3cnn(CCN4CCCC4)c3)c2c1)c1c(Cl)cncc1Cl` (stereo not shown) [Compound 25, 5-(1-(3,5-dichloropyridin-4-yl)ethoxy)-N-(1-(2-(pyrrolidin-1-yl)ethyl)-1H-pyrazol-4-yl)-1H-indazole-3-carboxamide]: the IC50 against FGFR1 V561M [5] worked out at 3.6 nM; against FGFR3 V555M [6], 0.21 nM; against FGFR2 V564F [7] it was 0.26 nM; against VEGFR2 [8], 145 nM.
